Assay results: paper PMC12648101, “Targeting SARS-CoV-2 main protease for the discovery of a broad-spectrum COVID-19 inhibitor by intensive multi-tiered validation” (Acta Pharmaceutica Sinica. B, 2025)
“Also recorded” adds a separate entry of the source. Where two headings read alike, the source gives them in different places.

Experiments:
[1] = tested on: SARS-CoV-2 Omicron BA.2.3; assay: microbe, parasite or virus in culture; format: cell-based; details: Severe acute respiratory syndrome coronavirus 2, Vero C1008, 48 h
SARS-CoV-2 WT [2] = format: in vivo, K18-hACE2 transgenic mice; details: for body weight of infected mice: 1000 FFU SARS-CoV-2 WT; for lung live viral titers vs Virus group: three days post-infection
SARS-CoV-2 Delta = assay: microbe, parasite or virus in culture; format: cell-based; details: Severe acute respiratory syndrome coronavirus 2, Vero C1008, 48 h
[3] = tested on: SARS-CoV-2 Omicron BA.1.1; assay: microbe, parasite or virus in culture; format: cell-based; details: Severe acute respiratory syndrome coronavirus 2, Vero C1008, 48 h
SARS-CoV-2 WT [4] = assay: Antiviral CPE assay in infected Vero E6 cells; format: cell-based; details: Severe acute respiratory syndrome coronavirus 2, Vero C1008, Vero E6, MOI 0.01, 48 h
E166V mutation of M^pro = details: E166V mutant vs wild-type M^pro; cited from earlier work
SARS-CoV-2 Omicron BA.4 = assay: microbe, parasite or virus in culture; format: cell-based; details: Severe acute respiratory syndrome coronavirus 2, Vero C1008, 48 h
SARS-CoV-2 Omicron BA.5 = assay: microbe, parasite or virus in culture; format: cell-based; details: Severe acute respiratory syndrome coronavirus 2, Vero C1008, 48 h
[5] = Solubility of the dosing preparation at the effective dose; format: physicochemical; details: 300 mg/kg dose, saline with 5% DMSO
Experimental: In vivo, a total of 20 female K18-hACE2 transgenic mice aged 8 weeks were obtained from GemPharmatech (Nanjing, China), which were classified into four groups with five mice in each group: Group 1 served as the untreated, infected control (Virus group); Group 2 received 300 mg/kg of PF-07321332 as the positive control; and Groups 3 and 4 were administered CHLA at doses of 150 and 300 mg/kg, respectively. On Day 0, these K18-hACE2 mice were intranasally inoculated with 1000 FFU of SARS-CoV-2 WT, which was pre-diluted in 50 μL of DMEM. The therapeutic administration was commenced 2 h after infection. The K18-hACE2 transgenic mice were orally administered with either PF-07321332 (300 mg/kg) or CHLA at varying doses (150 and 300 mg/kg), which were dissolved in a saline solution containing 5% DMSO. The mice were euthanized three days post-administration, and the lungs were collected and placed in 1 mL PBS and preserved at −80 °C to evaluate pulmonary virus titers.

[6] = Pharmacokinetic study in rats (LC-MS/MS); format: in vivo, Sprague–Dawley (SD) rats; details: male, Sprague-Dawley, plasma, rat
Experimental: The PK study was strictly conducted according to the National Medical Products Administration (NMPA) Good Laboratory Practice (GLP) guidelines, which was undertaken at the Animal Center of Tianjin University of Traditional Chinese Medicine. Sprague–Dawley (SD) rats were supplied by Beijing Vital River Laboratory Animal Technology Co., Ltd. (Beijing, China). Male SD rats (n = 5 per group, weights: 180–200 g and age: 6–8 weeks) were administered by CHLA (solubilized in DMSO: 0.9% NaCl = 5:95, v/v) at doses of 10 and 5 mg/kg via intragastric (i.g.) and intravenous (i.v.) routes, respectively. Blood samples were collected at specified intervals post-administration (0.033, 0.083, 0.166, 0.25, 0.5, 1, 4, 6, 8, 12, 24, 36, and 48 h), followed by centrifugation at 4000 rpm (Thermo Scientific Sorvall ST 40R Centrifuge, Osterode, Germany) and 4 °C for 10 min. The supernatant plasma was stored at −20 °C for subsequent analysis.
Analysis was performed on a Shimadzu LC-20AD Prominence Liquid Chromatograph (Shimadzu Corporation, Japan)–AB Sciex API […] mass spectrometer (Applied Biosystems, USA) (LC–MS/MS). Samples were separated on an Agilent Poroshell 120 EC-C18 column (2.7 μm, 3.0 mm × 50 mm) (Agilent, USA). The column temperature was 35 °C, and the mobile phase consisted of water with 0.1% formic acid (v/v, buffer A) and acetonitrile with 0.1% formic acid (v/v, buffer B). The elution was conducted according to a 5-min gradient program (0–0.5 min, 10% buffer B; 0.5–2 min, 10%–90% buffer B; 2–3.5 min, 90% buffer B; 3.5–5 min, 10% buffer B), with the flow rate set at 0.5 mL/min and the injection volume at 10 μL. The mass spectrometry operated in positive MRM mode, targeting the precursor and product ions of CHLA (m/z 953.3 →301.1 and 953.3 →275.1, respectively). Tolbutamide served as the internal standard (IS), with precursor and product ions at 269.1 →170.1. The parameters were analyzed by […] via DAS 3.2.8 software. The regression equation for CHLA, based on the peak area ratio of CHLA to IS against the concentration, was (Eq. (1)):(1) y=0.0000796x+0.000162(r=0.9968) indicating a strong correlation.

[7] = Cell viability assay (CCK-8); format: cell-based; details: African green monkey; Vero E6 cells, CCK8, 48 h
Experimental: Cell viability was assessed using the Cell Counting Kit-8 assay (CCK-8, MedChemExpress, China). In brief, Vero E6 cells (ATCC, CRL-1586) at a density of 5 × 10^4 cells/well were seeded into 96-well plates for 24 h. Cells were cultured in Dulbecco's modified Eagle's medium (DMEM) (Gibco, USA), supplemented with 10% (v/v) serum, 100 U/mL penicillin, and 100 μg/mL streptomycin. Serial dilutions of CHLA (200 μL) at concentrations of 100, 80, 60, 40, 20, 10, and 5 μmol/L were added to wells and incubated for another 24 or 48 h, respectively. Following the incubation, the existing medium was replaced with fresh medium containing a 10% CCK-8 solution and incubated at 37 °C for 1 h. Absorbance at 450 nm was measured using a Microplate Reader (TECAN Sunrise™) to determine the final optical density. Data were analyzed using GraphPad Prism 8.0 software (version 8.0). All experiments were performed in triplicate to ensure reliability.

Caco-2 cells = assay: Caco-2 bidirectional permeability assay; format: in vitro ADME
[8] = Caco-2 bidirectional permeability assay; format: in vitro ADME; details: human, pH 7.4
[9] = Acute toxicity test in mice; format: in vivo, C57BL/6 mice; details: 200 and 500 mg/kg, i.g.
Experimental: Specific-pathogen-free (SPF) C57BL/6 mice were used, balanced for gender, with males and females weighing 18–20 g. The Institutional Committee approved all animal experiment procedures in this study for Animal Care and Biosafety at the Animal Center, Tianjin University of Traditional Chinese Medicine. CHLA was weighed and subsequently dissolved in a 5% DMSO solution, which was then diluted with normal saline (0.9% sodium chloride solution) and mixed to achieve the desired concentration. To evaluate CHLA's acute toxicity, mice were randomly allocated into three groups (n = 10): a control group administered normal saline, and two treatment groups administered CHLA solution at 200 and 500 mg/kg, respectively. We monitored all mice that occurred twice daily over 14 days, focusing on toxicological signs, changes in body weight, and behavioral abnormalities. Upon concluding the study, specimens from blood, heart, liver, spleen, lung, and kidney were harvested for analysis.

Row | SMILES | EC50 [1] [nM] | body weight of infected mice (SARS-CoV-2 WT [2]; 300 mg/kg oral) | lung live viral titers vs Virus group (SARS-CoV-2 WT [2]; 300 mg/kg oral) | EC50 (SARS-CoV-2 Delta) [nM] | EC50 [3] [nM] | EC50 (SARS-CoV-2 WT [4]) [nM] | EC50 (SARS-CoV-2 Omicron BA.4) [nM] | EC50 (SARS-CoV-2 Omicron BA.5) [nM] | solubility at the effective dose [5] | Papp (A–B) (Caco-2 cells; Caco-2, 5 µmol/L, Table S3) | Papp A→B at 2 h, 5 μmol/L ([8]; Caco-2, 5 μmol/L) [×10⁻⁶ cm/s] | efflux ratio at 2 h, 5 μmol/L ([8]; Caco-2, 5 μmol/L) | Papp B→A at 2 h, 5 μmol/L ([8]; Caco-2, 5 µmol/L, Table S3) [×10⁻⁶ cm/s] | also measured
1 | CC(C)(C)[C@H](NC(=O)C(F)(F)F)C(=O)N1C[C@H]2[C@@H]([C@H]1C(=O)N[C@H](C#N)C[C@@H]1CCNC1=O)C2(C)C [PF-07321332, reference compound] | 40 | weight recovery | significant decrease | 50 | 50 | 30 | 80 | 40 | poor solubility |  |  |  |  | loss of inhibitory efficacy caused by the E166V mutation (E166V mutation of M^pro): over 200 fold
2 | O=C(O)C[C@@H]1C(=O)O[C@H]2[C@@H]3OC(=O)c4cc(O)c(O)c(O)c4-c4c(cc(O)c(O)c4O)C(=O)OC[C@H]2O[C@@H](OC(=O)c2cc(O)c(O)c(O)c2)[C@@H]3OC(=O)c2cc(O)c(O)c3c2[C@H]1[C@H](O)C(=O)O3 [CHLA, chebulagic acid] | 1110 | weight recovery | significant decrease | 1860 | 820 | 430 | 1890 | 1910 | superior solubility | 1.20 10-6, cm/s | 1.2 | 0.33 |  | lung live viral titers vs Virus group (SARS-CoV-2 WT [2]; 150 mg/kg oral): no significant difference; antiviral efficacy compared with positive control PF-07321332 (300 mg/kg) (SARS-CoV-2 WT [2]; 300 mg/kg oral, P > 0.05): equivalent to that of PF-07321332; also recorded: comparable to that of PF-07321332; AUC(0-t) ([6]; iv, i.v. 5 mg/kg): 16300 ± 1980 ng·h/mL; Cmax ([6]; iv, i.v. 5 mg/kg): 4160 ± 79.4 ng/mL; Tmax ([6]; iv, i.v. 5 mg/kg): 0.033 h; half-life ([6]; iv, i.v. 5 mg/kg): 39.6 ± 13.5 h; bioavailability ([6]; oral, i.g. 10 mg/kg vs i.v. 5 mg/kg, read-out: oral bioavailability (F)): 7.1%; AUC(0-t) ([6]; po, i.g. 10 mg/kg): 2320 ng·h/mL; Cmax ([6]; po, i.g. 10 mg/kg): 241 ng/mL; Tmax ([6]; po, i.g. 10 mg/kg): 2 h; half-life ([6]; po, i.g. 10 mg/kg): 15.2 h; CC50 at 48 h [7]: > 100000 nM; membrane permeability, in words (Caco-2 cells; Caco-2, 5 μmol/L): moderate membrane permeability; Papp (B–A) (Caco-2 cells; Caco-2, 5 µmol/L, Table S3): 0.39 10-6, cm/s; Papp B→A at 2 h, 5 μmol/L ([8]; Caco-2, 5 μmol/L): 0.39 ×10⁻⁶ cm/s; histology of lung, heart, spleen, liver and kidney [9]: No obvious histological changes; acute oral toxicity, overall finding ([9]; 14 days): safe; body weight vs control group ([9]; 14 days): no significant difference
3 | C[C@H]1O[C@@H](O[C@H]2[C@@H](O)C[C@H](O[C@H]3[C@@H](O)C[C@H](O[C@H]4CC[C@@]5(C)[C@H](CC[C@@H]6[C@@H]5C[C@@H](O)[C@]5(C)[C@@H](C7=CC(=O)OC7)CC[C@]65O)C4)O[C@@H]3C)O[C@@H]2C)C[C@H](O)[C@@H]1O [Digoxin] |  |  |  |  |  |  |  |  |  |  |  | 29.6 | 20.2 | Papp A→B at 2 h, 5 μmol/L ([8]; Caco-2, 5 µmol/L, Table S3): 0.68 ×10⁻⁶ cm/s
4 | Nc1cc(N2CCCCC2)nc(N)[n+]1[O-] [Minoxidil] |  |  |  |  |  |  |  |  |  | 5.94 10-6, cm/s | 5.94 | 0.96 | 5.71 | 
